Paper PMC7618104, “The GLP-1 analogue, exendin-4, improves bone material properties and strength through a central relay in ovariectomized mice” (American journal of physiology. Endocrinology and metabolism, 2025)

Assays:
[1] = tested on: ovariectomized BALB/c mice; experiment: 3-point bending of femur (whole-bone strength), ovariectomy-induced bone fragility model; type: in vivo, mouse (BALB/cJRj, female); conditions: 28 days, n=8
Experimental: (§1) Eight animals were randomly assigned to each group.
(§2) All animals received intraperitoneal administration of calcein green (10 mg/kg) 10 days and 2 days before sacrifice. Animals were housed in social groups and maintained in a 12 h:12 h light/dark cycle. They had free access to water and food. At necropsy, blood was collected by intracardiac aspiration into EDTA-treated tubes. Blood samples were centrifuged at 13,000 g for 15 min, aliquoted and stored at -80°C until plasma levels of exendin-4 (#EK-070-94, Phoenix pharmaceuticals, Burlingame, CA) and calcitonin (NBP3-06734, Bio-Techne Ltd, Abingdon, UK) were measured according to the manufacturer’s protocol. Plasma levels of the bone remodeling markers C-terminal telopeptide of collagen type I (CTx-I – RatLaps, Immunodiagnostic Systems Ltd, Boldon, UK) and N-terminal propeptide of type I collagen (P1NP - Rat/mouse P1NP, Immunodiagnostic Systems Ltd) were measured according to the manufacturers’ recommendation. Right femurs were wrapped in saline-soaked gauze and frozen at -20°C until use. Right tibiae were fixed in ethanol-based fixative and stored at 4°C until use. No specific inclusion or exclusion criteria were applied for animal selection. […] Additionally, correct implantation of the cerebral perfusion cannulas for icv-administered animals was verified at necropsy. All animals meeting these criteria were included in the study.
(§3) The whole-bone strength of right femurs was assessed by 3-point bending in accordance with published guidelines ([34]). Three-point bending strength was measured with a constant span length of 10 mm. Bones were tested in the antero-posterior axis with the posterior surface facing upward, centered on the support and the pressing force was applied vertically to the midshaft of the bone. Each bone was tested fully hydrated and at room temperature with a loading speed of 2 mm.min^-1 until failure with a 500 N load cell on an Instron 5942 device (Instron, Elancourt, France) and the load-displacement curve was recorded at a 100 Hz rate by the Bluehill 3 software (Instron). Ultimate load, ultimate displacement, stiffness and work to fracture were calculated as indicated in ([34]). The yield point was determined as the point at which a regression line that represents a 10% loss in stiffness crosses the load-displacement curve. Post-yield displacement was computed as the displacement between yielding and fracture. Peak bending moment was calculated as one-half the ultimate load multiplied by one-half the span length ([34]). The peak bending moment is related to bone tissue material properties and bone midshaft geometry by the following equation: M=σb×IML/cAP

[2] = tested on: ovariectomized BALB/c mice; experiment: microCT trabecular microstructure, proximal tibia metaphysis; type: in vivo, mouse (BALB/cJRj, female); conditions: 28 days, vs OVX+vehicle, n=8
Experimental: as §1, §2
MicroCT analyses were performed at the proximal metaphysis of the right tibia and at the mid-diaphysis of the right femur with a Bruker 1272 microtomograph operated at 70 kV, 140 μA, 1000 ms integration time and imaging in ethanol 70. The isotropic pixel size was fixed at 4 μm, the rotation step at 0.25° and exposure was performed with a 0.5 mm aluminum filter. Hydroxyapatite phantoms (250 mg/cm^3 and 750 mg/cm^3) were used for calibration. Reconstruction of 2D projections was done with the NRecon software (Version 1.6.10.2). For tibial analysis, a trabecular volume of interest was located 0.5 mm below the growth plate at the proximal end and extended 2 mm down. Trabecular bone was separated from cortical bone with an automatic contouring script in CTan software (Version 1.20.8.0). The right femur was used for cortical microarchitecture. The region analyzed (0.5 mm) was centered at the midpoint between the third trochanter and the distal growth plate. Bone was segmented from soft tissue using global thresholding set at 300 mg/cm^3 for trabecular bone and 700 mg/cm^3 for cortical bone. All histomorphometrical parameters were measured with the CTan software according to guidelines and nomenclature proposed by the American Society for Bone and Mineral Research ([31]).

[3] = tested on: ovariectomized BALB/c mice; experiment: Bone histomorphometry at the proximal tibia metaphysis; type: in vivo, mouse (BALB/cJRj, female); conditions: 28 days, n=8; for BFR/BS / MAR / MS/BS / O.Th / OS/BS / N.Oc/B.Pm / Oc.S/BS: mean ± SD; for N.Oc/B.Pm / Oc.S/BS: p<0.001 vs. OVX+Vehicle
Experimental: as §1, §2
After microCT, right tibias were embedded undecalcified in polymethylmethacrylate (pMMA) at 4°C as previously reported ([32]). Seven micron-thick sections were made with a sledge microtome (Polycut S, Leica, Nanterre, France) prior to histoenzymatic detection of TRAP or Goldner trichrome staining. Dynamic histomorphometry was perfomed after counterstaining the bone matrix with calcein blue. All histomorphometrical parameters were measured with an in-house written application developed in Matlab R2023b (The Mathworks, Natick, CA, RRID:SCR_001622) according to guidelines and nomenclature proposed by the American Society for Bone and Mineral Research ([33]).

[4] = tested on: ovariectomized BALB/c mice; experiment: Tissue material strength of femur (from peak bending moment and geometry); type: in vivo, mouse (BALB/cJRj, female); conditions: 28 days, vs OVX+vehicle, n=8
Experimental: as §1
as §3, with “M=σb×IML/cAP […]” for “M=σb×IML/cAP”

[5] = tested on: animal models of bone fragility; conditions: subcutaneous, OVX model; cited from earlier work
From the text: These observations formed the basis for investigating the potential utility of a GLP-1r agonist for the management of bone fragility. Ex-4 has already been administered subcutaneously in preclinical models of bone fragility, including the OVX model used in the present study. Previous studies have reported positive effects of Ex-4 that increased bone mineral density, trabecular microstructure and circulating calcitonin leve ...

[6] = icv Ex-4 70 pmol/day, vs OVX+vehicle, p<0.001

exendin-4 [Ex-4]
increase in energy-to-fracture [1, 6]: 8%
increase in post-yield displacement [1, 6]: 8%
increase in ultimate load ([1]; icv Ex-4 70 pmol/day, vs OVX+vehicle, p=0.010): 7%
ultimate load ([1]; s.c. Ex-4 ~700 pmol/day, OVX, p=0.817): did not prevent the impact of ovariectomy on ultimate load
stiffness ([1]; s.c. Ex-4 ~700 pmol/day, OVX, p=0.984): did not prevent the impact of ovariectomy
increase in energy-to-fracture ([1]; s.c. Ex-4 ~700 pmol/day, vs OVX+vehicle, p=0.020): 24%
increase in post-yield displacement ([1]; s.c. Ex-4 ~700 pmol/day, vs OVX+vehicle, p=0.025): 18%
change in Tb.N ([2]; icv Ex-4 70 pmol/day, p<0.001): 4%
change in BV/TV ([2]; icv Ex-4 70 pmol/day, p=0.005): +6%
increase in Tb.N ([2]; s.c. Ex-4 ~700 pmol/day, p<0.001): 6%
increase in BV/TV ([2]; s.c. Ex-4 ~700 pmol/day, p=0.002): 11%
BFR/BS ([3]; OVX + Ex-4, icv 70 pmol/day): 0.282 ± 0.065 μm^3/μm^2/day
MAR ([3]; OVX + Ex-4, icv 70 pmol/day): 2.17 ± 0.41 μm/day
MS/BS ([3]; OVX + Ex-4, icv 70 pmol/day): 12.9 ± 1.2%
O.Th ([3]; OVX + Ex-4, icv 70 pmol/day): 4.7 ± 0.7 μm
OS/BS ([3]; OVX + Ex-4, icv 70 pmol/day): 3.0 ± 2.2%
N.Oc/B.Pm ([3]; OVX + Ex-4, icv 70 pmol/day): 1.01 ± 0.27 ^*** mm^-1
Oc.S/BS ([3]; OVX + Ex-4, icv 70 pmol/day): 0.96 ± 0.27 %
BFR/BS ([3]; OVX + Ex-4, s.c. ~700 pmol/day): 0.301 ± 0.059 μm^3/μm^2/day
MAR ([3]; OVX + Ex-4, s.c. ~700 pmol/day): 2.30 ± 0.35 μm/day
MS/BS ([3]; OVX + Ex-4, s.c. ~700 pmol/day): 13.0 ± 1.3%
O.Th ([3]; OVX + Ex-4, s.c. ~700 pmol/day): 4.8 ± 0.8 μm
OS/BS ([3]; OVX + Ex-4, s.c. ~700 pmol/day): 2.4 ± 1.0%
N.Oc/B.Pm ([3]; OVX + Ex-4, s.c. ~700 pmol/day): 1.11 ± 0.26
Oc.S/BS ([3]; OVX + Ex-4, s.c. ~700 pmol/day): 0.99 ± 0.28 %
change in number of osteoclasts [3, 6]: -51%
change in osteoclast surfaces [3, 6]: -45%
change in number of osteoclasts and osteoclast surfaces ([3]; s.c. Ex-4 ~700 pmol/day, vs OVX+vehicle, p<0.001): -41%
increase in tissue material strength ([4]; icv Ex-4 70 pmol/day, p=0.005): 9%
increase in tissue material strength ([4]; s.c. Ex-4 ~700 pmol/day, p=0.043): 11%
bone mineral density, trabecular microstructure, calcitonin, osteoclast parameters, bone strength [5]: increased bone mineral density, trabecular microstructure and circulating calcitonin levels and reduced osteoclast parameters, resulting in greater bone strength
